{"source": "patent US11963960B2", "about": "(Flash Therapeutics, LLC, priority 2020, dated 2024)"}
{"biological_target": "N-terminally GST-tagged HCK (75-526) (Homo sapiens (Human), UniProt P08631)", "sequence (P08631 75-526)": "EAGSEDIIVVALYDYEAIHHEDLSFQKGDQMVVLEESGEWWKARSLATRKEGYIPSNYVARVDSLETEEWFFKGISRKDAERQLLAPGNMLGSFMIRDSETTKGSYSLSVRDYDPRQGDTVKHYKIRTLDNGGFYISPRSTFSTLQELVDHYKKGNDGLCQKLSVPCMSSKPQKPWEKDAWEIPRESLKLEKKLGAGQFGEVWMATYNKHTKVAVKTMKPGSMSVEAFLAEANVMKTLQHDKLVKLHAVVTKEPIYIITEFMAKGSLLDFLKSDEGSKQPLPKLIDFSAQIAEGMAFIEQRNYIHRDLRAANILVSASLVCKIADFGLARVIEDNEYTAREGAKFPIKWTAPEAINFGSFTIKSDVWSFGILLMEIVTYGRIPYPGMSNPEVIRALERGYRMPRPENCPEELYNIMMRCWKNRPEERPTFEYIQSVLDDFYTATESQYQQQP", "assay": "HCK Kinase Assay (ProFluor Src-Family Kinase Assay)", "assay_type": "biochemical", "details": "not given", "summary_of_the_method": "(§1)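 ProFluor Src-family format: after the kinase reaction, protease solution was added for 60 min at room temperature (22-25° C), then stabilizer.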", "units": {"IC50": "nM"}}
{"smiles": "[2H]C([2H])([2H])N1C([2H])([2H])C([2H])([2H])N([C@H]2CC[C@@H](n3cc(-c4ccc(Oc5ccccc5)cc4)c4c(N)ncnc43)CC2)C([2H])([2H])C1([2H])[2H]", "note": "(single isomer, unassigned) [Example 6, 7-((cis)-4-(4-d3-methyl-d8-piperazin-1-yl)cyclohexyl)-5-(4-phenoxyphenyl)-7H-pyrrolo[2,3-d]pyrimidin-4-amine]", "IC50": "< 50"}
{"biological_target": "N-terminally GST-tagged HCK (75-526) (Homo sapiens (Human), UniProt P08631)", "assay": "HCK Kinase Assay (ProFluor Src-Family Kinase Assay)", "assay_type": "biochemical", "details": "HCK inhibitory activity, 50 μM ATP; read-out: HCK Activity", "summary_of_the_method": "as §1", "units": {"IC50": "nM"}}
{"smiles": "Nc1ncnc2c1c(-c1ccc(Oc3ccccc3)cc1)cn2[C@H]1CC[C@H](N2CCC(S(N)(=O)=O)CC2)CC1", "note": "[Example 69, 1-((trans)-4-(4-amino-5-(4-phenoxyphenyl)-7H-pyrrolo[2,3-d]pyrimidin-7-yl)cyclohexyl)piperidine-4-sulfonamide]", "IC50": "50 to 250"}
{"smiles": "CN1CCC([C@H]2OC[C@H](n3cc(-c4ccc(Oc5ccccc5)cc4)c4c(N)ncnc43)CO2)CC1", "note": "[Example 145, 7-((2r,5r)-2-(1-Methylpiperidin-4-yl)-1,3-dioxan-5-yl)-5-(4-phenoxyphenyl)-7H-pyrrolo[2,3-d]pyrimidin-4-amine]", "IC50": "< 50"}
{"smiles": "CN1CCN([C@H]2CC[C@H](n3cc(-c4ccc(Oc5ccccc5)cc4F)c4c(N)ncnc43)CC2)CC1", "note": "[Example 105, 5-(2-fluoro-4-phenoxyphenyl)-7-((trans)-4-(4-methylpiperazin-1-yl)cyclohexyl)-7H-pyrrolo[2,3-d]pyrimidin-4-amine]", "IC50": "< 50"}
{"smiles": "NCC1OCC(N2CCC(n3cc(-c4ccc(Oc5ccccc5)cc4)c4c(N)ncnc43)CC2)CO1", "note": "(stereo not drawn) [Example 162, 7-(1-(2-(aminomethyl)-1,3-dioxan-5-yl)piperidin-4-yl)-5-(4-phenoxyphenyl)-7H-pyrrolo[2,3-d]pyrimidin-4-amine]", "IC50": "< 50"}
{"smiles": "Nc1ncnc2c1c(-c1ccc(Oc3ccccc3)cc1)cn2C1CCC2(CC1)OCC(N)CO2", "note": "(stereo not drawn) [Example 92, 7-(3-Amino-1,5-dioxaspiro[5.5]undecan-9-yl)-5-(4-phenoxyphenyl)-7H-pyrrolo [2,3-d]pyrimidin-4-amine]", "IC50": "50 to 250"}
{"smiles": "C[C@H]1CN([C@H]2CC[C@@H](n3nc(-c4ccc(Oc5ccccc5)cc4F)c4c(N)ncnc43)CC2)CCN1", "note": "[Example 128, 3-(2-fluoro-4-phenoxyphenyl)-1-((cis)-4-((S)-3-methylpiperazin-1-yl)cyclohexyl)-1H-pyrazolo[3,4-d]pyrimidin-4-amine]", "IC50": "50 to 250"}
{"smiles": "CN1CCC(N2CCC(n3nc(-c4ccc(NC(=O)Nc5cc(C(C)(C)C)on5)cc4)c4c(N)ncnc43)CC2)CC1", "note": "[Example 148, 1-(4-(4-Amino-1-(1′-methyl-[1,4′-bipiperidin]-4-yl)-1H-pyrazolo[3,4-d]pyrimidin-3-yl)phenyl)-3-(5-(tert-butyl)isoxazol-3-yl)urea]", "IC50": "50 to 250"}
{"smiles": "C[C@H]1CN([C@H]2CC[C@H](n3cc(-c4ccc(NC(=O)Nc5cc(C(C)(C)C)on5)cc4)c4c(N)ncnc43)CC2)CCN1", "note": "[Example 129, 1-(4-(4-amino-7-((trans)-4-((S)-3-methylpiperazin-1-yl)cyclohexyl)-7H-pyrrolo[2,3-d]pyrimidin-5-yl)phenyl)-3-(5-(tert-butyl)isoxazol-3-yl)urea]", "IC50": "< 50"}
{"smiles": "CN1CCN([C@H]2CC[C@H](n3cc(-c4ccc(CC(=O)Nc5cc(C(C)(C)C)on5)cc4)c4c(N)ncnc43)CC2)CC1", "note": "[Example 124, 2-(4-(4-amino-7-((trans)-4-(4-methylpiperazin-1-yl)cyclohexyl)-7H-pyrrolo[2,3-d]pyrimidin-5-yl)phenyl)-N-(5-(tert-butyl)isoxazol-3-yl)acetamide]", "IC50": "50 to 250"}
{"smiles": "Nc1ncnc2c1c(-c1ccc(Oc3ccccc3)cc1)cn2[C@H]1CC[C@@H](N2CCCC(N)C2)CC1", "note": "(stereo partly drawn) [Example 55, 7-((cis)-4-(3-aminopiperidin-1-yl)cyclohexyl)-5-(4-phenoxyphenyl)-7H-pyrrolo[2,3-d]pyrimidin-4-amine]", "IC50": "< 50"}
{"smiles": "CN1CCN([C@H]2CC[C@H](n3cc(-c4ccc(C(=O)c5ccccc5)cc4)c4c(N)ncnc43)CC2)CC1", "note": "[Example 113, (4-(4-amino-7-((trans)-4-(4-methylpiperazin-1-yl)cyclohexyl)-7H-pyrrolo[2,3-d]pyrimidin-5-yl)phenyl)(phenyl)methanone]", "IC50": "< 50"}
